The subject of data set [1] is Mus musculus. The data set can be described thus: Antiarthritic activity in BALB/c mouse type 2 collagen antibody-induced arthritis model assessed as inhibition of disease burden at 3 mg/kg, po qd for 14 days measured on day 20 relative to control. The class given is functional.
Data set [2] has as its system Mus musculus. The data set can be described thus: Antiarthritic activity in BALB/c mouse type 2 collagen antibody-induced arthritis model assessed as physiological disease-modifying affect at 3 mg/kg, po qd for 14 days measured on day 20 relative to control. The class given is functional, organism-based. Set-up: dose 3 mg/kg.
The test system of data set [3] is Mus musculus. The data set can be described thus: Toxicity in BALB/c mouse type 2 collagen antibody-induced arthritis model assessed as change in body weight at 3 mg/kg, po qd for 14 days measured on day 20. The class given is organism-based. Further details: dose 3 mg/kg, route oral. As to conditions: in vivo, 336 h.
Data set [4] can be described thus: Plasma concentration in BALB/c mouse at 400 mg/kg, po after 3 hrs. The class given is ADME, organism-based. Set-up: dose 400 mg/kg, route oral.
Data set [5] in a line: Plasma concentration in BALB/c mouse at 50 mg/kg, ip after 3 hrs. The class given is ADME, organism-based. Set-up: dose 50 mg/kg, route intraperitoneal.
Data set [6] in a line: Plasma concentration in BALB/c mouse at 50 mg/kg, po after 3 hrs. The class given is ADME, organism-based. Further details: dose 50 mg/kg, route oral.
The nature of data set [7]: Plasma concentration in BALB/c mouse at 200 mg/kg, po after 3 hrs. The class given is ADME, organism-based. Further details: dose 200 mg/kg, route oral.
Data set [8] relates to Mus musculus. The data set can be described thus: Antiinflammatory activity in BALB/c mouse assessed as reduction of LPS-induced TNFalpha production in serum at 5 to 100 mg/kg, po administered 1 hr before LPS challenge measured after 3 hrs by EIA. The class given is functional. Further details: scale not given: the % may be the effect or the level left. The conditions noted are these: dose mg/kg 5-100.

The test system of data set [9] is Mus musculus. Briefly: Antiinflammatory activity in BALB/c mouse assessed as reduction of LPS-induced TNFalpha production in serum at 5 mg/kg, po administered 1 hr before LPS challenge measured after 3 hrs by EIA relative to LPS treated control. The class given is functional. Further details: scale not given: the % may be the effect or the level left.
The subject of data set [10] is Mus musculus. Briefly: Antiarthritic activity in BALB/c mouse type 2 collagen antibody-induced arthritis model assessed as inhibition of disease burden at 50 mg/kg, ip qd for 14 days measured on day 20 relative to control. The class given is functional. The conditions noted are these: route intraperitoneal.
The test system of data set [11] is Mus musculus. The data set can be described thus: Antiarthritic activity in BALB/c mouse type 2 collagen antibody-induced arthritis model assessed as physiological disease-modifying affect at 50 mg/kg, ip qd for 14 days measured on day 20 relative to control. The class given is functional, organism-based. Further details: dose 50 mg/kg.
In data set [12] the test system is Mus musculus. Briefly: Toxicity in BALB/c mouse type 2 collagen antibody-induced arthritis model assessed as change in body weight at 50 mg/kg, ip qd for 14 days measured on day 20. The class given is organism-based. The conditions noted are these: in vivo, 336 h. Set-up: dose 50 mg/kg, route intraperitoneal.
In data set [13] the test system is Mus musculus. The data set can be described thus: Hepatotoxicity in BALB/c mouse assessed as increase in serum ALT level at 50 mg/kg, po after 6 hrs. The class given is toxicity, organism-based. Set-up: dose 50 mg/kg, route oral. As to conditions: in vivo.
Data set [14] concerns Mus musculus. The data set can be described thus: Hepatotoxicity in BALB/c mouse assessed as increase in serum ALT level at 150 mg/kg, po after 6 hrs. Set-up: dose 150 mg/kg, route oral. The class given is toxicity, organism-based. As to conditions: in vivo.
Data set [15] has as its system Mus musculus. Briefly: Hepatotoxicity in BALB/c mouse assessed as increase in serum ALT level at 50 mg/kg, ip after 13 to 19 days. The class given is toxicity, organism-based. Set-up: dose 50 mg/kg, route intraperitoneal. As to conditions: in vivo.
Data set [16] relates to Mus musculus. Briefly: Hepatotoxicity in BALB/c mouse assessed as increase in serum ALT level at 150 mg/kg, ip after 13 to 19 days. Further details: dose 150 mg/kg, route intraperitoneal. The class given is toxicity, organism-based. The conditions noted are these: in vivo.
The subject of data set [17] is Mus musculus. The data set can be described thus: Antiarthritic activity in BALB/c mouse type 2 collagen antibody-induced arthritis model assessed as inhibition of disease burden at 150 mg/kg, ip qd for 14 days measured on day 20 relative to control. The conditions noted are these: route intraperitoneal. The class given is functional.
Data set [18] concerns Mus musculus. Briefly: Antiarthritic activity in BALB/c mouse type 2 collagen antibody-induced arthritis model assessed as reduction of inflammation at 150 mg/kg, ip qd for 14 days measured on day 20 relative to control. The class given is functional, organism-based. Further details: dose 150 mg/kg.
Data set [19] concerns Mus musculus. Briefly: Antiarthritic activity in BALB/c mouse type 2 collagen antibody-induced arthritis model assessed as reduction of pannus formation at 150 mg/kg, ip qd for 14 days measured on day 20 relative to control. The class given is functional, organism-based. Set-up: dose 150 mg/kg.
Data set [20] deals with Mus musculus. Briefly: Antiarthritic activity in BALB/c mouse type 2 collagen antibody-induced arthritis model assessed as reduction of cartilage damage at 150 mg/kg, ip qd for 14 days measured on day 20 relative to control. Further details: dose 150 mg/kg. The class given is functional, organism-based.
For data set [21], the system named is Mus musculus. The data set can be described thus: Antiarthritic activity in BALB/c mouse type 2 collagen antibody-induced arthritis model assessed as reduction of bone resorption at 150 mg/kg, ip qd for 14 days measured on day 20 relative to control. The class given is functional, organism-based. Set-up: dose 150 mg/kg.
For data set [22], the system named is Mus musculus. The data set can be described thus: Antiarthritic activity in BALB/c mouse type 2 collagen antibody-induced arthritis model assessed as reduction of exostosis at 150 mg/kg, ip qd for 14 days measured on day 20 relative to control. The class given is functional, organism-based. Set-up: dose 150 mg/kg.
Data set [23] has as its system Mus musculus. The data set can be described thus: Antiarthritic activity in BALB/c mouse type 2 collagen antibody-induced arthritis model assessed as physiological disease-modifying affect at 150 mg/kg, ip qd for 14 days measured on day 20 relative to control. The class given is functional, organism-based. Further details: dose 150 mg/kg.
In data set [24] the test system is Mus musculus. Briefly: Toxicity in BALB/c mouse type 2 collagen antibody-induced arthritis model assessed as change in body weight at 150 mg/kg, ip qd for 14 days measured on day 20. Further details: dose 150 mg/kg, route intraperitoneal. As to conditions: in vivo, 336 h. The class given is organism-based.

Active and inactive are the calls of the source. The rule behind the calls is not given here.

For orientation: inhibition in vivo means the relative decrease from the control value, in per cent. `C[C@@H]1C[C@H]2[C@@H]3CCC4=CC(=O)C=C[C@]4(C)[C@@]3(F)[C@@H](O)C[C@]2(C)[C@@]1(O)C(=O)CO` [DEXAMETHASONE]: the inhibition in vivo at 3 mg/kg with Mus musculus [1] worked out at 102%. Also, in the data set on Mus musculus [2], the result was Active. In the data set with Mus musculus [3], the Activity result is reported as “Toxic”.
`CCOC(=O)[C@]1(c2ccccc2)N=C(c2ccccc2)N(Cc2ccccc2)[C@@H]1c1ccccc1`: the concentration at 3 h in [4] amounted to 9 µM; in data set [5], 6 µM; in data set [6], 2 µM; in data set [7] it was 4 µM. The Activity is reported as 50% with Mus musculus [8], 50% in the data set on Mus musculus [9] and “Non-toxic” in the data set with Mus musculus [12]. In the data set with Mus musculus [10], the inhibition in vivo at 50 mg/kg was 67%. The result in the data set with Mus musculus [11] was Active.
On to `CCOC(=O)C1(c2ccccc2)N=C(c2ccccc2)N(Cc2ccccc2)C1c1ccccc1` (racemic), for which the Activity entry in the data set on Mus musculus [13], in the data set on Mus musculus [14], in the data set with Mus musculus [15], in the data set with Mus musculus [16] and in the data set on Mus musculus [24] was “Non-toxic” each time. Besides, the inhibition in vivo at 150 mg/kg with Mus musculus [17] was 94%. The outcome with Mus musculus [18], with Mus musculus [19], with Mus musculus [20], in the data set with Mus musculus [21], in the data set with Mus musculus [22] and with Mus musculus [23] was Active.

(Values after ChEMBL document CHEMBL2157919, “Attenuation of collagen-induced arthritis by orally available imidazoline-based NF-κB inhibitors” (Bioorg Med Chem Lett, 2012).)
